According to PubChem BioAssay AID2060907 (Molecular Pharmacology Branch, DTP, NCI, 2025):
pIC50: −log10 of the molar value. Values joined by “and” are separate entries in the source; they are usually repeats but may differ in a detail not shown here. Equal entries are not always repeated. Each block holds one molecule with its values, some of them ahead of it.

Test system: 388556-164-R-J1-PDC complex spheroid viability
Experiment: Anticancer human tumor 388556-164-R-J1-PDC patient-derived colon adenocarcinoma cell line growth inhibition [RAS]
Conditions: for viability, T/C: stronger effect = lower value
From the text: RAS pathway inhibitors in Combinations in Complex Spheroids
A high-throughput screen of multi-cell type tumor spheroids was designed to identify active combinations of RAS pathway inhibitors and targeted small molecules. Complex spheroids include a stromal component modeled by human endothelial cells (HUVEC) and fibroblasts modeled by human mesenchymal stem cells (MSCs). The concentration ranges selected for each drug and investigational agent were based upon clinically achievable concentrations if the clinical Cmax of the agent was known.
Compounds. The drugs and investigational agents: abemaciclib (NSC768073), cobimetinib (NSC768068), divarasib (GDC6063, NSC841802), docetaxel (NSC628503), GDC-1971 (RLY-1971, NSC841576), gemcitabine (NSC613327), inavolisib (NSC800729), ipatasertib (NSC767898), KB-0742 (NSC834161), MRTX-1133 (NSC836407), osimertinib (NSC779217), RMC-4630 (NSC839698), RMC-6236 (NSC851965), RMC-6291 (NSC852671), Ro-3306 (NSC812927), sapanisertib (NSC764658), SN-38 (NSC673596), staurosporine (NSC755774), SY5609 (NSC837396), and tovorafenib (DAY101, NSC766906), were obtained from the National Cancer Institute (NCI) Developmental Therapeutics Program Chemical Repository. The FDA-approved anticancer drug set is available from the NCI Developmental Therapeutics Program. […] The stock solutions were prepared in dimethyl sulfoxide (DMSO, Sigma-Aldrich, St. Louis, MO, cat. D2650) at 800-fold the tested concentration and stored at -70 degrees C prior to their use. All drugs and investigational agents were tested over a range starting from a high concentration at or near the clinical Cmax and decreasing in half-log increments. If the clinical Cmax for an agent had not been determined, the highest concentration tested was 10 microM.
Cell Culture. All cells were maintained in an incubator at 37 degrees C and 5% CO2 with 95% humidity. The PDC lines were cultured according to standard operating procedures established by the NCI PDMR. All PDCs were thawed and cultured in Matrigel-coated flasks prepared with a working solution of 1X Ham's F-12 nutrient mix, without supplementation (Invitrogen, Waltham, MA, cat. 11765054), 100 U/mL penicillin-streptomycin (Invitrogen, cat. 15140122), and 2.5% Matrigel (Corning Inc., Corning, NY, cat. 354248) for the first three passages. The 362531-283-R-J2-PDC and 782815-120-R-J1-PDC lines were cultured in 6C/Colon 1B media, which includes advanced DMEM/F-12 (Thermo Fisher Scientific, cat. 12634028), 10 mM HEPES (Thermo Fisher Scientific, cat. 15630080), 1X GlutaMAX supplement (Thermo Fisher Scientific, cat. 35050061), 0.1 mg/mL primocin (InvivoGen, San Diego, CA, cat. ant-pm-2), 10% defined fetal bovine serum, heat inactivated (HyClone Laboratories Inc., Logan, UT, cat. SH30070.03HI), 50% L-WRN conditioned media (ATCC, cat. CRL-3276), 1.25 mM N-Acetyl-L-cysteine (Sigma-Aldrich, cat. A9165), 10 mM nicotinamide (Sigma-Aldrich, cat. N0636), 1X B-27 supplement (Thermo Fisher Scientific, cat. 17504044), 1X N-2 supplement (Thermo Fisher Scientific, cat. 17502048), 50 ng/mL human EGF (Thermo Fisher Scientific, cat. PHG0311), and 10 microM Y-27632 dihydrochloride (Tocris Bioscience, cat. 1254). The K12877-001-R-J1-PDC line was cultured in 6I media, which includes all 6C/Colon 1B media plus 10 ng/mL human FGF-10 (PeproTech, cat. 100-26), 1 ng/mL human FGF-2 (PeproTech, cat. 100-18B), 1 µM prostaglandin E2 (Tocris Bioscience, cat. 2296), […] hydrocortisone (Sigma-Aldrich, cat. H4001), and […] bovine insulin (Sigma-Aldrich, cat. I6634). The K86415-001-R-J1-PDC line was cultured in 6D media, which includes all 6C/Colon 1B media components minus the L-WRN conditioned media. The 485176-168-R4-J1-PDC was cultured in PANC media, which includes all 6C/Colon 1B media plus 100 ng/mL human FGF-10 (PeproTech, cat. 100-26), 500 nM SB-431542 (Selleckchem, cat. S1067), and 10 nM gastrin (Tocris Bioscience, cat. 3006). […]

[1] = curve of first compound, second compound 0.000949 µM
[2] = curve of first compound, second compound 0.003 µM
[3] = curve of first compound, second compound 0.00949 µM
[4] = curve of first compound, second compound 0.03 µM
[5] = curve of first compound, second compound 0.0949 µM
[6] = curve of first compound, second compound 0.3 µM
[7] = second compound 0.000949 µM, first compound 0.0316 µM
[8] = second compound 0.000949 µM, first compound 0.1 µM
[9] = second compound 0.000949 µM, first compound 0.316 µM
[10] = second compound 0.000949 µM, first compound 1 µM
[11] = second compound 0.003 µM, first compound 0.0316 µM
[12] = second compound 0.003 µM, first compound 0.1 µM
[13] = second compound 0.003 µM, first compound 0.316 µM
[14] = second compound 0.003 µM, first compound 1 µM
[15] = second compound 0.00949 µM, first compound 0.0316 µM
[16] = second compound 0.00949 µM, first compound 0.1 µM
[17] = second compound 0.00949 µM, first compound 0.316 µM
[18] = second compound 0.00949 µM, first compound 1 µM
[19] = second compound 0.03 µM, first compound 0.0316 µM
[20] = second compound 0.03 µM, first compound 0.1 µM
[21] = second compound 0.03 µM, first compound 0.316 µM
[22] = second compound 0.03 µM, first compound 1 µM
[23] = second compound 0.0949 µM, first compound 0.0316 µM
[24] = second compound 0.0949 µM, first compound 0.1 µM
[25] = second compound 0.0949 µM, first compound 0.316 µM
[26] = second compound 0.0949 µM, first compound 1 µM
[27] = second compound 0.3 µM, first compound 0.0316 µM
[28] = second compound 0.3 µM, first compound 0.1 µM
[29] = second compound 0.3 µM, first compound 0.316 µM
[30] = second compound 0.3 µM, first compound 1 µM
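Also: spheroids exposed to compound for 7 days before readout.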
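For viability, T/C in this document: 100% = DMSO vehicle control luminescence.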

pIC50 [1]: 6.88
pIC50 [2]: 7.07
pIC50 [3]: 7.44
pIC50 [4]: 8.08
pIC50 [5]: > 8.50
pIC50 [6]: > 8.50
SMILES: O=C(c1ccc(F)c(F)c1Nc1ccc(I)cc1F)N1CC(O)([C@@H]2CCCCN2)C1 + CCn1c(-c2cc(N3CCN(C)CC3)cnc2C(C)OC)c2c3cc(ccc31)-c1csc(n1)CC(NC(=O)C1CC1C)C(=O)N1CCCC(N1)C(=O)OCC(C)(C)C2
viability, T/C (second compound 0.000949 µM, first compound 0.00316 µM): 96%
viability, T/C (second compound 0.000949 µM, first compound 0.01 µM): 91%
viability, T/C [7]: 72.6%
viability, T/C [8]: 58.3%
viability, T/C [9]: 31.8%
viability, T/C [10]: 19.9%
viability, T/C (second compound 0.003 µM, first compound 0.00316 µM): 97.5%
viability, T/C (second compound 0.003 µM, first compound 0.01 µM): 83.3%
viability, T/C [11]: 70.5%
viability, T/C [12]: 46%
viability, T/C [13]: 29.1%
viability, T/C [14]: 19.3%
viability, T/C (second compound 0.00949 µM, first compound 0.00316 µM): 80.9%
viability, T/C (second compound 0.00949 µM, first compound 0.01 µM): 69.2%
viability, T/C [15]: 50.1%
viability, T/C [16]: 38%
viability, T/C [17]: 24.1%
viability, T/C [18]: 18.7%
viability, T/C (second compound 0.03 µM, first compound 0.00316 µM): 63.6%
viability, T/C (second compound 0.03 µM, first compound 0.01 µM): 45.8%
viability, T/C [19]: 36.9%
viability, T/C [20]: 30.1%
viability, T/C [21]: 19.7%
viability, T/C [22]: 18.6%
viability, T/C (second compound 0.0949 µM, first compound 0.00316 µM): 35%
viability, T/C (second compound 0.0949 µM, first compound 0.01 µM): 33.2%
viability, T/C [23]: 30.3%
viability, T/C [24]: 18.4%
viability, T/C [25]: 17.9%
viability, T/C [26]: 18.8%
viability, T/C (second compound 0.3 µM, first compound 0.00316 µM): 28.3%
viability, T/C (second compound 0.3 µM, first compound 0.01 µM): 26.1%
viability, T/C [27]: 20.1%
viability, T/C [28]: 16.9%
viability, T/C [29]: 18.4%
viability, T/C [30]: 17%

pIC50 (curve of compound): < 5.00
SMILES: CC1(O)CCCC1n1c(=O)c(C(F)F)cc2cnc(NC3CCN(S(C)(=O)=O)CC3)nc21 (stereo not drawn)
viability, T/C (compound 0.0316 µM): 92.6% and 106% and 83.1%
viability, T/C (compound 0.1 µM): 100% and 93% and 103%
viability, T/C (compound 0.316 µM): 107% and 99.9% and 99.4%
viability, T/C (compound 1 µM): 102% and 97.4% and 98%
viability, T/C (compound 3.16 µM): 111% and 105% (2×)
viability, T/C (compound 10 µM): 75.2% and 57.1% and 77.8%

pIC50 (compound alone, run of 09/09/2024): < 5.00
SMILES: C#Cc1c(F)ccc2cc(O)cc(-c3ncc4c(N5CC6CCC(C5)N6)nc(OCC56CCCN5CC(F)C6)nc4c3F)c12 (stereo not drawn)
viability, T/C (compound 0.0316 µM): 84.2% [middle of 8 runs]
viability, T/C (compound 0.1 µM): 75.7% [middle of 8 runs]
viability, T/C (compound 0.316 µM): 95.4% [middle of 8 runs]
viability, T/C (compound 1 µM): 93.8% [middle of 8 runs]
viability, T/C (compound 3.16 µM): 87.3% [middle of 7 runs]
viability, T/C (compound 10 µM): 70.4% [middle of 8 runs]

pIC50 [1]: < 5.00
pIC50 [2]: < 5.00
pIC50 [3]: 5.02
pIC50 [4]: 5.11
pIC50 [5]: < 5.00
pIC50 [6]: 5.11
SMILES: CC(Nc1ccc2c(c1)OCCn1cc(N3C(=O)OCC3C(F)F)nc1-2)C(N)=O (stereo not drawn) + CCn1c(-c2cccnc2C(C)OC)c2c3cc(ccc31)N1CCOC(CC(NC(=O)C(C(C)C)N(C)C(=O)C3(F)CCN(C(=O)C#CC(C)(C)N(C)C)CC3)C(=O)N3CCCC(N3)C(=O)OCC(C)(C)C2)C1
viability, T/C [7]: 96.7%
viability, T/C [8]: 83.7%
viability, T/C [9]: 73%
viability, T/C [10]: 79.4%
viability, T/C (second compound 0.000949 µM, first compound 3.16 µM): 59.8%
viability, T/C (second compound 0.000949 µM, first compound 10 µM): 50.9%
viability, T/C [11]: 102%
viability, T/C [12]: 82.3%
viability, T/C [13]: 82.7%
viability, T/C [14]: 67.4%
viability, T/C (second compound 0.003 µM, first compound 3.16 µM): 66.7%
viability, T/C (second compound 0.003 µM, first compound 10 µM): 50.1%
viability, T/C [15]: 87.1%
viability, T/C [16]: 89.5%
viability, T/C [17]: 80.7%
viability, T/C [18]: 69%
viability, T/C (second compound 0.00949 µM, first compound 3.16 µM): 68%
viability, T/C (second compound 0.00949 µM, first compound 10 µM): 48.1%
viability, T/C [19]: 92.4%
viability, T/C [20]: 83.6%
viability, T/C [21]: 80.7%
viability, T/C [22]: 69.6%
viability, T/C (second compound 0.03 µM, first compound 3.16 µM): 66.3%
viability, T/C (second compound 0.03 µM, first compound 10 µM): 44.4%
viability, T/C [23]: 95.8%
viability, T/C [24]: 79.1%
viability, T/C [25]: 72.3%
viability, T/C [26]: 71.4%
viability, T/C (second compound 0.0949 µM, first compound 3.16 µM): 62.9%
viability, T/C (second compound 0.0949 µM, first compound 10 µM): 50.8%
viability, T/C [27]: 76.7%
viability, T/C [28]: 71%
viability, T/C [29]: 70.8%
viability, T/C [30]: 64.9%
viability, T/C (second compound 0.3 µM, first compound 3.16 µM): 61.4%
viability, T/C (second compound 0.3 µM, first compound 10 µM): 46.6%
